The structures appear in SMILES notation.

Data on 21 compounds can be found in US12577234B2, “Antagonists of the muscarinic acetylcholine receptor M4” (Vanderbilt University, priority 2017, dated 2026).

This experiment has as its target T1, human mAChR M4 (Homo sapiens, UniProt P08173).
T1 construct: expressed in transfected cells; host or cells: CHO-K1 (ATCC), stably co-expressing chimeric G protein Gqi5
T1 sequence (P08173 1-479): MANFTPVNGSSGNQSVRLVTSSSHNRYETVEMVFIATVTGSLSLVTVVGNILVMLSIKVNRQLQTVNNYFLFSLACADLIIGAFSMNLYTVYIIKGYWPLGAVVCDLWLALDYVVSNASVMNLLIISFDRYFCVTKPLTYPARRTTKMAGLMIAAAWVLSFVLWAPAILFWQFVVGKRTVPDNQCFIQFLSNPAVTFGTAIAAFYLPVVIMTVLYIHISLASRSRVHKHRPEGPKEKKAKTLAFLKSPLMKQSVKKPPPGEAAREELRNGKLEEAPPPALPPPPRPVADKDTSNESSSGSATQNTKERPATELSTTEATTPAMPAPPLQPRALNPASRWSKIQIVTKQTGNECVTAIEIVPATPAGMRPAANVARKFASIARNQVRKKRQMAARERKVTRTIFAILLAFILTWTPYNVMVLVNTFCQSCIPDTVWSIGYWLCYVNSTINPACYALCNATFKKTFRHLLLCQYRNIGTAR
The experiment in a line: mAChR M4 cell-based functional assay (calcium mobilization, EC80 acetylcholine), human M4. As to conditions: Table 9; for IC50: M4/Gqi5/CHO-K1 cells, decrease of EC80 acetylcholine response; for Emin: human M4, % ACh maximum at 30 μM. The essentials:
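CHO-K1 cells stably expressing human M4 with chimeric Gqi5; intracellular calcium rise read on FDSS as fluorescence static ratio at 1 Hz. Compounds in 10-point 1:3 dilution series; IC50 taken as concentration-dependent decrease of the EC80 acetylcholine response, four-parameter logistic fit.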
For orientation: Calcium assays in cells follow changes in intracellular calcium, usually with a dye or a luminescent sensor.

For `Cc1nn(C)cc1-c1ccc(NCC2C[C@@H]3CN(CC(C)C(C)(C)C)C[C@@H]3C2)nn1` (stereo partly drawn) [Compound 63, N-[[(3aR,6aS)-2-(2,3,3-trimethylbutyl)-3,3a,4,5,6,6a-hexahydro-1H-cyclopenta[c]pyrrol-5-yl]methyl]-6-(1,3-dimethylpyrazol-4-yl)pyridazin-3-amine], the IC50 (usually the concentration that inhibits the measured activity by half) is 108 nM and the Emin is recorded as 3.46%.

With `Cc1cnn(C)c1-c1ccc(NC[C@H]2C[C@@H]3CN(CC4CC5C=CC4C5)C[C@@H]3C2)nn1` (stereo partly drawn) [Compound 64, N-[[(3aR,5s,6aS)-2-(5-bicyclo[2.2.1]hept-2-enylmethyl)-3,3a,4,5,6,6a-hexahydro-1H-cyclopenta[c]pyrrol-5-yl]methyl]-6-(2,4-dimethylpyrazol-3-yl)pyridazin-3-amine], the IC50 is 7.9 nM and the Emin was 3.74%.

As for `Cc1cnn(C)c1-c1ccc(NC[C@H]2C[C@@H]3CN(CC(C)C(C)(C)C)C[C@@H]3C2)nn1` (stereo partly drawn) [Compound 65, N-[[(3aR,5s,6aS)-2-(2,3,3-trimethylbutyl)-3,3a,4,5,6,6a-hexahydro-1H-cyclopenta[c]pyrrol-5-yl]methyl]-6-(2,4-dimethylpyrazol-3-yl)pyridazin-3-amine], the half-inhibitory concentration (IC50) turned out to be 253 nM and the Emin was 4.16%.

In the case of `Cc1cnn(C)c1-c1ccc(NC[C@H]2C[C@@H]3CN(CC4CCOCC4)C[C@@H]3C2)nn1` [Compound 66, N-[[(3aR,5s,6aS)-2-(tetrahydropyran-4-ylmethyl)-3,3a,4,5,6,6a-hexahydro-1H-cyclopenta[c]pyrrol-5-yl]methyl]-6-(2,4-dimethylpyrazol-3-yl)pyridazin-3-amine], the concentration for half-maximal inhibition (IC50) was found to be 3790 nM and the Emin was 17.2%.

As for `Cc1cnn(C)c1-c1ccc(NC[C@H]2C[C@@H]3CN(CC4CCCOC4)C[C@@H]3C2)nn1` (stereo partly drawn) [Compound 67, N-[[(3aR,5s,6aS)-2-(tetrahydropyran-3-ylmethyl)-3,3a,4,5,6,6a-hexahydro-1H-cyclopenta[c]pyrrol-5-yl]methyl]-6-(2,4-dimethylpyrazol-3-yl)pyridazin-3-amine], the IC50 is 5310 nM and the Emin is listed as 17.2%.

Turning to `Cc1cccnc1CN1C[C@H]2C[C@H](CNc3ccc(-c4c(C)cnn4C)nn3)C[C@H]2C1` [Compound 68, N-[[(3aR,5s,6aS)-2-[(3-methyl-2-pyridyl)methyl]-3,3a,4,5,6,6a-hexahydro-1H-cyclopenta[c]pyrrol-5-yl]methyl]-6-(2,4-dimethylpyrazol-3-yl)pyridazin-3-amine], the 50% inhibitory concentration (IC50) stood at 618 nM and the Emin is 6.26%.

`Fc1ccc(Cl)c(-c2ccc(NC[C@H]3C[C@@H]4CN(CC5CC6C=CC5C6)C[C@@H]4C3)nn2)c1` (stereo partly drawn) [Compound 69, N-[[(3aR,5s,6aS)-2-(5-bicyclo[2.2.1]hept-2-enylmethyl)-3,3a,4,5,6,6a-hexahydro-1H-cyclopenta[c]pyrrol-5-yl]methyl]-6-(2-chloro-5-fluoro-phenyl)pyridazin-3-amine]: the IC50 turned out to be 35.9 nM and the Emin is 2.74%.

`CC(C)(C)CCN1C[C@H]2C[C@H](CNc3ccc(-c4cc(F)ccc4Cl)nn3)C[C@H]2C1` [Compound 70, N-[[(3aR,5s,6aS)-2-(3,3-dimethylbutyl)-3,3a,4,5,6,6a-hexahydro-1H-cyclopenta[c]pyrrol-5-yl]methyl]-6-(2-chloro-5-fluoro-phenyl)pyridazin-3-amine]: the IC50 amounted to 19.2 nM and the Emin is 2.64%.

Consider `Fc1ccc(Cl)c(-c2ccc(NC[C@H]3C[C@@H]4CN(CC5CCOCC5)C[C@@H]4C3)nn2)c1` [Compound 71, N-[[(3aR,5s,6aS)-2-(tetrahydropyran-4-ylmethyl)-3,3a,4,5,6,6a-hexahydro-1H-cyclopenta[c]pyrrol-5-yl]methyl]-6-(2-chloro-5-fluoro-phenyl)pyridazin-3-amine], for which the half-inhibitory concentration (IC50) was 364 nM and the Emin was found to be 3.81%.

Regarding `Cc1nn(C)cc1-c1ccc(NC[C@H]2C[C@@H]3CN(CC4CCCCC4)C[C@@H]3C2)nn1` [Compound 72, N-[[(3aR,5s,6aS)-2-(cyclohexylmethyl)-3,3a,4,5,6,6a-hexahydro-1H-cyclopenta[c]pyrrol-5-yl]methyl]-6-(1,3-dimethylpyrazol-4-yl)pyridazin-3-amine], the IC50 was determined as 201 nM and the Emin turned out to be 4.02%.

Regarding `Cc1cccnc1CN1C[C@H]2C[C@H](CNc3ccc(-c4cn(C)nc4C)nn3)C[C@H]2C1` [Compound 73, N-[[(3aR,5s,6aS)-2-[(3-methyl-2-pyridyl)methyl]-3,3a,4,5,6,6a-hexahydro-1H-cyclopenta[c]pyrrol-5-yl]methyl]-6-(1,3-dimethylpyrazol-4-yl)pyridazin-3-amine], the IC50 was determined as 2010 nM and the Emin was determined as 9.23%.

For the compound `Cc1cnn(C)c1-c1ccc(NC(=O)C2C[C@@H]3CN(CCC(C)(C)C)C[C@@H]3C2)nn1` (stereo partly drawn) [Compound 74, (3aR,6aS)-2-(3,3-Dimethylbutyl)-N-[6-(2,4-dimethylpyrazol-3-yl)pyridazin-3-yl]-3,3a,4,5,6,6a-hexahydro-1H-cyclopenta[c]pyrrole-5-carboxamide], the 50% inhibitory concentration (IC50) was 263 nM and the Emin came out at 3.37%.

As to `O=C(Nc1ccc(-c2ccc(F)cc2Cl)nn1)C1C[C@@H]2CN(CC3CC4C=CC3C4)C[C@@H]2C1` (stereo partly drawn) [Compound 75, (3aR,6aS)-2-(5-bicyclo[2.2.1]hept-2-enylmethyl)-N-[6-(2-chloro-4-fluoro-phenyl)pyridazin-3-yl]-3,3a,4,5,6,6a-hexahydro-1H-cyclopenta[c]pyrrole-5-carboxamide], the 50% inhibitory concentration (IC50) was found to be 2780 nM and the Emin was 3.25%.

On to `Cc1cnn(C)c1-c1ccc(NC(=O)C2CC3CN(CC(C)C(C)(C)C)CC3C2)nn1` (stereo not drawn) [Compound 76, N-[6-(2,4-dimethylpyrazol-3-yl)pyridazin-3-yl]-2-(2,3,3-trimethylbutyl)-3,3a,4,5,6,6a-hexahydro-1H-cyclopenta[c]pyrrole-5-carboxamide], for which the 50% inhibitory concentration (IC50) was determined as 1040 nM and the Emin was found to be 4.09%.

In the case of `Cc1cnn(C)c1-c1ccc(NC(=O)C2CC3CN(CC4CC5C=CC4C5)CC3C2)nn1` (stereo not drawn) [Compound 77, 2-(5-bicyclo[2.2.1]hept-2-enylmethyl)-N-[6-(2,4-dimethylpyrazol-3-yl)pyridazin-3-yl]-3,3a,4,5,6,6a-hexahydro-1H-cyclopenta[c]pyrrole-5-carboxamide], the 50% inhibitory concentration (IC50) was 408 nM and the Emin came to 3.86%.

As to `Cc1cnn(C)c1-c1ccc(OCC2C[C@@H]3CN(CCC(C)(C)C)C[C@@H]3C2)nn1` (stereo partly drawn) [Compound 78, (3aR,6aS)-2-(3,3-Dimethylbutyl)-5-[[6-(2,4-dimethylpyrazol-3-yl)pyridazin-3-yl]oxymethyl]-3,3a,4,5,6,6a-hexahydro-1H-cyclopenta[c]pyrrole], the concentration for half-maximal inhibition (IC50) was 105 nM and the Emin is 4.35%.

Turning to `Cc1cnn(C)c1-c1ccc(OCC2C[C@@H]3CN(CC45CC6CC(CC(C6)C4)C5)C[C@@H]3C2)nn1` (stereo partly drawn) [Compound 79, (3sR,6aS)-2-(1-adamantylmethyl)-5-[[6-(2,4-dimethylpyrazol-3-yl)pyridazin-3-yl]oxymethyl]-3,3a,4,5,6,6a-hexahydro-1H-cyclopenta[c]pyrrole], the IC50 was found to be 119 nM and the Emin worked out at 3.76%.

As for `Cc1cnn(C)c1-c1ccc(OCC2C[C@@H]3CN(CC4CC5C=CC4C5)C[C@@H]3C2)nn1` (stereo partly drawn) [Compound 80, (3aR,6aS)-2-(5-bicyclo[2.2.1]hept-2-enylmethyl)-5-[[6-(2,4-dimethylpyrazol-3-yl)pyridazin-3-yl]oxymethyl]-3,3a,4,5,6,6a-hexahydro-1H-cyclopenta[c]pyrrole], the 50% inhibitory concentration (IC50) came to 73.4 nM and the Emin is recorded as 4.07%.

On to `CCC(C)CN1C[C@H]2CC(COc3ccc(-c4c(C)cnn4C)nn3)C[C@H]2C1` (stereo partly drawn) [Compound 81, (3aR,6aS)-5-[[6-(2,4-dimethylpyrazol-3-yl)pyridazin-3-yl]oxymethyl]-2-(2-methylbutyl)-3,3a,4,5,6,6a-hexahydro-1H-cyclopenta[c]pyrrole], for which the concentration for half-maximal inhibition (IC50) worked out at 904 nM and the Emin came to 4.54%.

On to `CCCC(C)CN1C[C@H]2CC(COc3ccc(-c4c(C)cnn4C)nn3)C[C@H]2C1` (stereo partly drawn) [Compound 82, (3aR,6aS)-5-[[6-(2,4-dimethylpyrazol-3-yl)pyridazin-3-yl]oxymethyl]-2-(2-methylpentyl)-3,3a,4,5,6,6a-hexahydro-1H-cyclopenta[c]pyrrole], for which the IC50 came out at 538 nM and the Emin was determined as 4.50%.

Take `Cc1cnn(C)c1-c1ccc(OCC2C[C@@H]3CN(CC4CCCCC4)C[C@@H]3C2)nn1` (stereo partly drawn) [Compound 83, (3aR,6aS)-2-(cyclohexylmethyl)-5-[[6-(2,4-dimethylpyrazol-3-yl)pyridazin-3-yl]oxymethyl]-3,3a,4,5,6,6a-hexahydro-1H-cyclopenta[c]pyrrole]: the IC50 is 222 nM and the Emin turned out to be 3.93%.
